{
  "source": "patent US20050120493A1",
  "about": "“Process for exchanging the anions of cationic compounds” (priority 2002, published 2005)",
  "data": [
    {"test": "solubility in water of the dye salts before and after anion exchange", "format": "physicochemical", "conditions": "salt form of the cationic dye as given per example", "values": [
      {"smiles": "Cn1cc[n+](C)c1N=Nc1ccc(N)cc1.[Cl-]", "water solubility": "3.7%"},
      {"smiles": "Cn1cc[n+](C)c1/N=N/c1ccc(NCCCCCCNc2ccc(/N=N/c3n(C)cc[n+]3C)cc2)cc1.[Cl-].[Cl-]", "water solubility": "< 0.03%"},
      {"smiles": "COc1ccc(Nc2ccc(/N=N/c3n(C)cc[n+]3C)cc2)cc1.[Cl-]", "water solubility": "0.35%"},
      {"smiles": "CCN(CC)c1ccc2nc3ccc(=[N+](CC)CC)cc-3oc2c1", "water solubility": "less than 0.4%"}
    ]}
  ]
}
